The results in this text go back to PubChem BioAssay (NCI).

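Test compounds were applied to cells in 96-well plates for 48 hours at 5 doses. GI50 is the concentration that inhibits growth by half. TGI: total growth inhibition.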 Where only a bound is given, the exact number is not on record here.

Test systems include PC-3 prostate; HOP-62 NSCLC; CAKI-1 renal; A498 renal; MDA-MB-435; LOX IMVI melanoma; OVCAR-3 ovarian; HL-60(TB) leukemia; UO-31 renal; HCC-2998 colon.
Holding throughout (experiment): inhibition of tumour cell growth, NCI panel, 48 h

With `COc1ccc(N(C)c2nc(N)nc3sc4c(c23)CCCC4)cc1`, the GI50 in the experiment on PC-3 prostate was < 0.01 µM; with HOP-62 NSCLC, 0.275 µM; in the experiment on CAKI-1 renal, < 0.0137 µM; in the experiment with A498 renal it was < 0.01 µM; in the experiment on MDA-MB-435, < 0.01 µM; in the experiment with LOX IMVI melanoma, < 0.01 µM. Further, the GI50 in the experiment with OVCAR-3 ovarian is 0.025 µM; in the experiment with HL-60(TB) leukemia, < 0.01 µM; in the experiment on UO-31 renal it was < 0.01 µM; in the experiment with HCC-2998 colon it was < 0.0146 µM. The TGI in the experiment on PC-3 prostate is 15.6 µM; in the experiment on HOP-62 NSCLC it was 18.8 µM; in the experiment with CAKI-1 renal, 15.4 µM; in the experiment with A498 renal, < 0.0209 µM; in the experiment with LOX IMVI melanoma it was 15.3 µM; with OVCAR-3 ovarian it was 14.2 µM. Also, the results for the TGI in the experiment on HL-60(TB) leukemia, with UO-31 renal and with HCC-2998 colon were 0.0101 µM, 14.2 µM and 12 µM, respectively.
For the compound `CCOC(=O)c1cnc2c(C)cccc2c1Nc1ccc(C(C)=O)cc1`, the GI50 with PC-3 prostate was 36.6 µM; in the experiment on HOP-62 NSCLC, 39.7 µM; in the experiment with CAKI-1 renal, 79 µM; in the experiment with A498 renal, 11.9 µM; in the experiment on MDA-MB-435 it was > 100 µM; with LOX IMVI melanoma, 47 µM. The GI50 with OVCAR-3 ovarian was 26.1 µM; with HL-60(TB) leukemia it was > 100 µM; in the experiment with UO-31 renal, 13.5 µM; in the experiment on HCC-2998 colon, 53.3 µM. For the same compound, the TGI in the experiment with PC-3 prostate is > 100 µM; with HOP-62 NSCLC, > 100 µM; in the experiment on CAKI-1 renal it was > 100 µM; in the experiment on A498 renal it was 63.4 µM; in the experiment on MDA-MB-435 it was > 100 µM; in the experiment with LOX IMVI melanoma, > 100 µM. Moreover, the TGI in the experiment on OVCAR-3 ovarian, in the experiment with HL-60(TB) leukemia, in the experiment on UO-31 renal and in the experiment on HCC-2998 colon was > 100 µM throughout.
Regarding `O=S(=O)(c1cnccc1N1CCN(CCO)CC1)N1CCCC1`, the TGI in the experiment with PC-3 prostate, in the experiment on HOP-62 NSCLC, with CAKI-1 renal, with A498 renal, with MDA-MB-435 and in the experiment on LOX IMVI melanoma was > 100 µM throughout. The TGI in the experiment on OVCAR-3 ovarian, in the experiment with HL-60(TB) leukemia, in the experiment with UO-31 renal and in the experiment with HCC-2998 colon was > 100 µM throughout.
With `O=C1Cc2cc(C(=O)NC3C[C@H]4CC[C@@H](C3)N4S(=O)(=O)CC3CCN(CCCC(F)(F)F)CC3)c(Cl)cc2N1` (stereo partly drawn), the GI50 with PC-3 prostate, in the experiment with HOP-62 NSCLC, in the experiment with CAKI-1 renal, in the experiment with A498 renal, in the experiment on MDA-MB-435 and with LOX IMVI melanoma was > 100 µM throughout. Further, the GI50 with OVCAR-3 ovarian, with HL-60(TB) leukemia, in the experiment on UO-31 renal and with HCC-2998 colon was > 100 µM in each case. The TGI with PC-3 prostate, in the experiment on HOP-62 NSCLC, with CAKI-1 renal, in the experiment with A498 renal, with MDA-MB-435 and in the experiment with LOX IMVI melanoma was > 100 µM in each case. Besides, the TGI in the experiment on OVCAR-3 ovarian, with HL-60(TB) leukemia, with UO-31 renal and in the experiment with HCC-2998 colon was > 100 µM throughout.
Turning to `COc1cc2cc(Oc3ccc(NC(=O)Nc4ccc(Cl)c(Cl)c4)cc3)c(C)nc2cc1OC`, the GI50 in the experiment with PC-3 prostate is 1.53 µM; with HOP-62 NSCLC it was 3.55 µM; in the experiment with CAKI-1 renal, 2.12 µM; in the experiment with A498 renal it was 1.95 µM; with MDA-MB-435 it was 3.09 µM; in the experiment with LOX IMVI melanoma, 3.45 µM. For the same compound, the GI50 in the experiment with OVCAR-3 ovarian is 2.34 µM; with HL-60(TB) leukemia, 2.76 µM; in the experiment on UO-31 renal it was 3.44 µM; with HCC-2998 colon it was 5.54 µM. Besides, the TGI with PC-3 prostate came to 5.13 µM; with HOP-62 NSCLC, 11.9 µM; in the experiment on CAKI-1 renal, 6.65 µM; in the experiment with A498 renal, 7.93 µM; with MDA-MB-435, 16.8 µM; in the experiment on LOX IMVI melanoma it was 14.6 µM. In addition, the TGI in the experiment on OVCAR-3 ovarian is 6.19 µM; with HL-60(TB) leukemia, 6.75 µM; in the experiment with UO-31 renal, 12.6 µM; in the experiment on HCC-2998 colon it was > 100 µM.
For `CC(=O)c1c(C)[nH]c(-c2nc3ccc(N4CCN(C)CC4)cc3[nH]2)c1-c1ccccc1`, the GI50 with PC-3 prostate is 1.04 µM; in the experiment with HOP-62 NSCLC it was 1.01 µM; with CAKI-1 renal it was 0.212 µM; in the experiment with A498 renal, 0.522 µM; in the experiment on MDA-MB-435 it was 0.505 µM; with LOX IMVI melanoma, 0.546 µM. Further, the GI50 is 1.11 µM in the experiment on OVCAR-3 ovarian, 0.261 µM in the experiment on HL-60(TB) leukemia, 0.374 µM with UO-31 renal and 1.54 µM in the experiment with HCC-2998 colon. The TGI was > 100 µM in the experiment with PC-3 prostate; 33.5 µM with HOP-62 NSCLC; 12.8 µM in the experiment with CAKI-1 renal; 4.79 µM with A498 renal; 12.9 µM in the experiment with MDA-MB-435; 10.1 µM with LOX IMVI melanoma. The TGI in the experiment on OVCAR-3 ovarian was 15 µM; in the experiment on HL-60(TB) leukemia, 12.7 µM; with UO-31 renal it was 11.8 µM; in the experiment on HCC-2998 colon it was 12.8 µM.
In the case of `CO[C@H]1C[C@@H]2CC[C@@H](C)[C@@](O)(O2)C(=O)C(=O)N2CCCC[C@H]2C(=O)O[C@H]([C@H](C)C[C@@H]2CC[C@@H](OCCO)[C@H](OC)C2)CC(=O)[C@H](C)C=C(C)[C@@H](O)[C@@H](OC)C(=O)[C@H](C)C[C@H](C)/C=C/C=C/C=C1C`, the GI50 in the experiment with PC-3 prostate is < 0.01 µM; with HOP-62 NSCLC, < 0.01 µM; in the experiment with A498 renal, < 0.01 µM; in the experiment on MDA-MB-435, < 0.0332 µM; in the experiment with LOX IMVI melanoma, < 0.01 µM; with OVCAR-3 ovarian, < 0.01 µM. Further, the GI50 in the experiment on HL-60(TB) leukemia is 8.63 µM; in the experiment on UO-31 renal, < 0.01 µM; in the experiment on HCC-2998 colon it was 4.48 µM. For the same compound, the TGI amounted to 16.7 µM in the experiment with PC-3 prostate; 19.2 µM in the experiment on HOP-62 NSCLC; 21 µM in the experiment with CAKI-1 renal; 16.3 µM with A498 renal; 22.1 µM in the experiment with MDA-MB-435; 17.8 µM in the experiment on LOX IMVI melanoma. The TGI was 16.7 µM with OVCAR-3 ovarian, 38.4 µM in the experiment with HL-60(TB) leukemia, 14.5 µM in the experiment on UO-31 renal and 22.1 µM with HCC-2998 colon.
For `O=C1NC(=NCCCc2ccccc2)S/C1=C\c1ccc2ncccc2c1`, the GI50 was 5.62 µM in the experiment with PC-3 prostate; 5.79 µM in the experiment with HOP-62 NSCLC; 5.09 µM with CAKI-1 renal; 3.81 µM in the experiment on A498 renal; 5.81 µM in the experiment with MDA-MB-435; 5.12 µM with LOX IMVI melanoma. Further, the GI50 is 4.81 µM with OVCAR-3 ovarian, 5.49 µM with HL-60(TB) leukemia, 4.06 µM in the experiment on UO-31 renal and 8.09 µM in the experiment with HCC-2998 colon. The TGI in the experiment with PC-3 prostate is 15.9 µM; in the experiment with HOP-62 NSCLC it was 13.8 µM; in the experiment on CAKI-1 renal it was > 18.2 µM; with A498 renal, 8.09 µM; with MDA-MB-435, > 18 µM; in the experiment with LOX IMVI melanoma, 14.6 µM. Further, the TGI with OVCAR-3 ovarian is 10.6 µM; with HL-60(TB) leukemia it was 16 µM; in the experiment on UO-31 renal, 11.9 µM; in the experiment on HCC-2998 colon, > 25 µM.
